Target: T1, Human HPK1, catalytic domain (Homo sapiens, UniProt Q92918)
T1 sequence (Q92918 1-346): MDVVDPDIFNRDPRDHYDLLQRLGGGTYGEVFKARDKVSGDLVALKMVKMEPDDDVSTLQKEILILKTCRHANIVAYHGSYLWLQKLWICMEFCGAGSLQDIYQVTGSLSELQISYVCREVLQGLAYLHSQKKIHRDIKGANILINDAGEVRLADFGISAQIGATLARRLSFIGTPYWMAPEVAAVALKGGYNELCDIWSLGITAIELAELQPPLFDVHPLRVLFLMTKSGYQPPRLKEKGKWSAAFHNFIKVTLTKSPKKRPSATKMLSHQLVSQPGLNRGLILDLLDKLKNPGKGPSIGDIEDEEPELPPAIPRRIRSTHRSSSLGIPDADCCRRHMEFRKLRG
Assay: HPK1-SLP76 TR-FRET Assay
Assay type: biochemical
Settings: 75 pM HPK1, ATP 10 uM, SLP76 10 nM, 30 min pre-incubation, 60 min reaction

Row | Structure (SMILES) | IC50 [nM]
1 | COc1cc2c(cc1Nc1ncc3ccc(NC4C5COCC54)cc3n1)CN(C)CC2 (stereo not drawn) [Compound 3-74, N~2~-(6-methoxy-2-methyl-1,2,3,4-tetrahydroisoquinolin-7-yl)-N~7~-(3-oxabicyclo[3.1.0]-hexan-6-yl)quinazoline-2,7-diamine] | 138
2 | COc1cc2c(cc1Nc1ncc3ccc(-c4cnccc4C)cc3n1)CN(C)CC2 [Compound 1-2, N-(6-methoxy-2-methyl-1,2,3,4-tetrahydroisoquinolin-7-yl)-7-(4-methylpyridin-3-yl)quinazolin-2-amine] | 26.2
3 | Cc1c(-c2cc3nc(Nc4ccccc4F)ncc3c(N)c2F)cnc2c1NCCO2 [Compound 2-22, 6-fluoro-N~2~-(2-fluorophenyl)-7-(8-methyl-2,3-dihydro-1H-pyrido[2,3-b][1,4]oxazin-7-yl)quinazoline-2,5-diamine] | 0.687
4 | COc1cc2c(cc1Nc1ncc3ccc(-c4cccc(CC#N)c4)cc3n1)CNCC2 [Compound 1-55, (3-{2-[(6-methoxy-1,2,3,4-tetrahydroisoquinolin-7-yl)amino]quinazolin-7-yl}phenyl)acetonitrile] | 52.8
5 | COc1cc2c(cc1Nc1ncc3c(N)c(F)c(-c4cnc5c(c4C)NCCO5)cc3n1)CN(C)CC21CC1 [Compound 2-45, 6-fluoro-N~2~-(6′-methoxy-2′-methyl-2′,3′-dihydro-1′H-spiro[cyclopropane-1,4′-isoquinolin]-7′-yl)-7-(8-methyl-2,3-dihydro-1H-pyrido[2,3-b][1,4]oxazin-7-yl)quinazoline-2,5-diamine] | 0.163
6 | Cc1c(-c2c(F)c(N)c3cnc(Nc4ccc5c(c4)CN(C)CC54CC4)nc3c2C)cnc2c1NCCO2 [Compound 2-110, (+ or −)-6-fluoro-8-methyl-N2-(2′-methyl-2′,3′-dihydro-1′H-spiro[cyclopropane-1,4′-isoquinolin]-7′-yl)-7-(8-methyl-2,3-dihydro-1H-pyrido[2,3-b][1,4]oxazin-7-yl)quinazoline-2,5-diamine] | 0.0706
7 | COc1cc2c(cc1Nc1ncc3ccc(N4C(=O)OC[C@@H]4C)cc3n1)CN(C)CC2 [Compound 3-2, (S)-3-{2-[(6-methoxy-2-methyl-1,2,3,4-tetrahydroisoquinolin-7-yl)amino]quinazolin-7-yl}-4-methyl-1,3-oxazolidin-2-one] | 1.79
8 | COc1cc2c(cc1Nc1ncc3ccc(NCc4cc(C)n(C)n4)cc3n1)CN(C)CC2 [Compound 3-72, N~7~-[(1,5-dimethyl-1H-pyrazol-3-yl)methyl]-N~2~-(6-methoxy-2-methyl-1,2,3,4-tetra-hydroisoquinolin-7-yl)quinaz-oline-2,7-diamine] | 290
9 | Cc1c(-c2c(F)c(N)c3cnc(Nc4ccc(S(C)(=O)=O)cc4)nc3c2Cl)cnc2c1NCCO2 [Compound 2-103, (+ or −)-8-chloro-6-fluoro-7-(8-methyl-2,3-dihydro-1H-pyrido[2,3-b][1,4]oxazin-7-yl)-N~2~- [4-(methylsulfonyl)phenyl] quinazoline-2,5-diamine] | 0.0946
10 | Cc1c(-c2cc3nc(Nc4ccc(CC(C)(C)O)cc4)ncc3c(N)c2F)cnc2c1NCCO2 [Compound 2-178, 1-(4-{[5-amino-6-fluoro-7-(8-methyl-2,3-dihydro-1H-pyrido[2,3-b][1,4]oxazin-7-yl)quinazolin-2-yl]amino}phenyl)-2-methylpropan-2-ol] | 0.0933
11 | COc1cc2c(cc1Nc1ncc3ccc(N(C)CC4CNC(=O)O4)cc3n1)CN(C)CC2 (racemic) [Compound 3-30, (S and R)-5-1112-1(6-methoxy-2-methyl-1,2,3,4-tetrahydroiso-quinolin-7-yl)amino]quinazolin-7-yl}(methyl)amino]methyl}-1,3-oxazolidin-2-one] | 148
12 | COc1cc2c(cc1Nc1ncc3ccc(NCC4CNC(=O)O4)cc3n1)CN(C)CC2 (racemic) [Compound 3-26, (S and R)-5-[({2-1(6-methoxy-2-methyl-1,2,3,4-tetrahydroiso-quinolin-7-yl)amino]quinazolin-7-yl}amino)methyl]-1,3-oxazol-idin-2-one] | 149
13 | Cc1c(-c2cc3nc(Nc4cnc5c(c4)CN(C)CC5)ncc3cc2F)cnc2c1NCCO2 [Compound 1-135, 6-fluoro-7-(8-methyl-2,3-dihydro-1H-pyrido[2,3-b][1,4]oxazin-7-yl)-N-(6-methyl-5,6,7,8-tetrahydro-1,6-naphthyridin-3-yl)quinazolin-2-amine] | 0.482
14 | CN1CCc2ccc(Nc3ncc4c(N)c(F)c(-c5cnc6c(c5Cl)NCCO6)cc4n3)cc2C1 [Compound 2-124, 7-(8-chloro-2,3-dihydro-1H-pyrido[2,3-b][1,4]oxazin-7-yl)-6-fluoro-N~2~-(2-methyl-1,2,3,4-tetrahydroisoquinolin-7-yl)quinazoline-2,5-diamine] | 0.0474
15 | Cc1c(-c2c(F)c(N)c3cnc(Nc4ccc(CS(C)(=O)=O)cc4F)nc3c2Cl)cnc2c1NCCO2 [Compound 2-135, 8-chloro-6-fluoro-N2-(2-fluoro-4-((methylsulfonyl)methyl)phenyl)-7-(8-methyl-2,3-dihydro-1H-pyrido[2,3-b][1,4]oxazin-7-yl)quinazoline-2,5-diamine] | 72.5
16 | CCC1COC(=O)N1c1cc(N)c2cnc(Nc3cc4c(cc3OC)CCN(C)C4)nc2c1 (single isomer, unassigned) [Compound 3-16, (S or R)-3-{5-amino-2-[(6-methoxy-2-methyl-1,2,3,4-tetrahydroisoquinolin-7-yl)amino]quinazolin-7-yl}-4-ethyl-1,3-oxazolidin-2-one] | 0.169
17 | COc1cc2c(cc1Nc1ncc3cc(C#N)c(-c4cnc5c(c4C)NCCO5)cc3n1)CN(C)CC2 [Compound 1-97, 2-[(6-methoxy-2-methyl-1-1,2,3,4-tetrahydroisoquinolin-7-yl)amino]-7-(8-methyl-2,3-dihydro-1H-pyrido[2,3-b][1,4]oxazin-7-yl)quinazoline-6-carbonitrile] | 53.8
18 | Cc1c(-c2cc3nc(Nc4ccc5c(c4)CN(CC(C)(C)O)C5=O)ncc3c(N)c2F)cnc2c1NCCO2 [Compound 2-42, 5-{[5-amino-6-fluoro-7-(8-methyl-2,3-dihydro-1H-pyrido[2,3-b][1,4]oxazin-7-yl)quinazolin-2-yl]amino}-2-(2-hydroxy-2-methylpropyl)-2,3-dihydro-1H-isoindol-1-one] | 0.153
19 | Cc1c(-c2cc3nc(Nc4ccc5c(c4)CN(C)CC5)ncc3c(N)c2F)cnc2c1NCC(C)O2 (single isomer, unassigned) [Compound 2-141, (R or S)-7-(3,8-dimethyl-2,3-dihydro-1H-pyrido[2,3-b][1,4]oxazin-7-yl)-6-fluoro-N2-(2-methyl-1,2,3,4-tetrahydroisoquinolin-7-yl)quinazoline-2,5-diamine] | 0.0505
20 | COc1cc2c(cc1Nc1ncc3ccc(-c4ccc(CC#N)nc4)cc3n1)CN(C)CC2 [Compound 1-108, (5-{2-[(6-methoxy-2-methyl-1,2,3,4-tetrahydroisoquinolin-7-yl)amino]quinazolin-7-yl}pyridin-2-yl)acetonitrile] | 56
21 | Cc1c(-c2cc3nc(Nc4cccc(S(C)(=O)=O)c4)ncc3c(N)c2F)cnc2c1NCCO2 [Compound 2-14, 6-fluoro-7-(8-methyl-2,3-dihydro-1H-pyrido[2,3-b][1,4]oxazin-7-yl)-N~2~- [3-(methylsulfonyl)phenyl] quinazoline-2,5-diamine] | 0.082

From patent publication US20230399341A1, “7-PHENYL SUBSTITUTED 2-AMINOQUINAZOLINE INHIBITORS OF HPK1” (MERCK SHARP & DOHME LLC, priority 2020, published 2023)
